# Measurements reported in publication PMC5581131, “The novel sphingosine-1-phosphate receptors antagonist AD2900 affects lymphocyte activation and inhibits T-cell entry into the lymph nodes” (Oncotarget, 2017).
# Legend:
# [1] = system: S1P1 expression on PBMCs; test: S1P1 cell surface expression on PBMCs, FACS; type: cell-based, human
# Experimental: Among the S1P receptors, S1P1 is the most widespread receptor in the immune system and is expressed by several cell populations. […] Since AD2900 functions as an antagonist on S1P1, we next checked whether AD2900 affects S1P1 expression on PBMCs; FTY720 and SEW2817 were used as positive controls. The percentage of cells expressing S1P1 on their cell surface was detected by FACS analysis and was calculated as % of expression in non-treated cells. Low doses of AD2900 led to a decreased number of S1P1-expressing PBMCs after a 30-min treatment (Figure 3A and Supplementary Figure 2C). […] The highest effect was obtained at 100 nM with a mean of 51% ± 9% expression as compared to untreated control PBMCs.
# Figure 3 AD2900 downregulates the percentage of S1P1- and CCR7-expressing cells in PBMCs (A, B) The percentages of S1P1-positive PBMCs after the treatment with different concentrations of AD2900, FTY720, or SEW2871 and at different time points were examined by FACS analysis. S1P1 expression was tested in PBMCs after a 30-min treatment with AD2900 at different concentrations (A) or after a 30-min or 60-min treatment with 100 nM AD2900, FTY720, or SEW2871 (B). (C) The percentage of CCR7-positive PBMCs was tested by FACS analysis after a 30-min treatment with 100 nM AD2900, FTY720, or SEW2871. All the significances are compared to untreated PBMCs. Results summarize the results of at least four independent experiments. Results of Student’s t-test: *(P < 0.05, two-tailed test), ** (P < 0.01, two-tailed test), *** (P < 0.001, two-tailed test), **** (P < 0.0001, two-tailed test).
# Human PBMCs: For the apoptosis test, anti-AnnexinV-FITC (BD Biosciences, CA, USA) was used. To analyze S1P1 surface expression on AD2900-treated PBMCs, the following were used: anti-S1P1 (Alomone labs, Israel), anti-EDG-1 (Abcam, UK), Dylight405-conjugated AffiniPure Goat Anti-Rabbit lgG (H + L), and APC-conjugated AffiniPure F(ab')2 Goat Anti-Rabbit lgG(H + L) (Jackson ImmonoResearch, USA). For CCR7 expression, we used anti-CCR7-APC (Biolegend, CA, USA).
# [2] = system: C57BL/6J female mice; test: Leukocyte counts in thymus, blood, spleen and lymph nodes after oral administration in drinking water; type: in vivo, mouse; conditions: 1.8 mg/l in drinking water
# Experimental: Next, 7- to 8-week-old C57BL/6J female mice were orally administered with AD2900 mixed in drinking water in different dosages (1.8, 2.7, or 3.6 mg/l) for 2 days (Figure 4A) or 7 days (Figure 4B); FTY720 was used as a positive control. In the 7-day experiment, the water was replaced on Day 3 with fresh water containing the same concentration of analog. At the end of the experiment, blood, spleen, inguinal lymph nodes, and thymus were obtained from each animal and the number of leukocytes was evaluated.
# Figure 4 AD2900 treatment alters the distribution of leukocytes in the thymus, blood, spleen, and peripheral lymph nodes in mice C57BL/6 female mice were orally administered with 1.8 mg/l AD2900 in their drinking water for 2 days (A) or 7 days (B), and FTY720 (1.8 mg/l) was used as a positive control. Leukocytes from the thymus, blood, spleen, and peripheral lymph nodes (pLNs) were collected and counted. All the significances are compared to untreated healthy mice. Results summarize four independent experiments in figure (A) and two independent experiments in figure (B). n = 4–7 mice per group in each experiment. Results of Student’s t-test:*(P < 0.05, two-tailed test), ** (P < 0.01, two-tailed test), *** (P < 0.001, two-tailed test), **** (P < 0.0001, two-tailed test).
# C57BL/6 female mice aged 7–8 weeks were obtained from Harlan Laboratories (Jerusalem, Israel). The animal study was conducted under appropriate conditions and was approved by the Institutional Animal Care and Use Committee of the Hebrew University of Jerusalem in accordance with the national laws and regulations for the protection of animals. AD2900 was dissolved in 10% BSA (MP Biomedicals, CA, USA) in DDW at 1 mg/ml and then further diluted in 200 ml water to get final concentrations at 1.8, 2.7, or 3.6 mg/l. AD2900 and FTY720 were supplied ad libitum to the mice for 2 days or 7 days. At the end of the experiment, blood was collected, and the mice were sacrificed and tissues (lymph nodes and spleen) were harvested.
# Murine blood samples, collected in tubes coated with EDTA (Grelner bio-one, Germany), were counted by a Mindray veterinary hematology Analyzer (Mindray, China). Single cell suspensions of lymph nodes and spleen were made in 1.5 ml of PBS. Cell counts were determined from these suspensions, yielding results in thousands of cells per microliter (μl).
Structure (SMILES),"effect on S1P1 cell surface expression, 30-min versus 60-min treatment ([1]; 100 nM)","S1P1 expression as compared to untreated control PBMCs ([1]; 100 nM, 30-min treatment, highest effect)","S1P1 expression level ([1]; 4000 nM, 30-min treatment)",concentrations that significantly and dose-dependently decreased S1P1 expression ([1]; 30-min treatment) [nM],increase of splenocyte counts ([2]; 2-day treatment),increase of thymus WBC count ([2]; 2-day treatment),increase of mice WBC count ([2]; 7-day treatment),increase of splenocyte counts ([2]; 7-day treatment),"reduction of the number of leukocytes in the lymph nodes, of that of the control ([2]; 7-day treatment)",lymph node leukocyte count ([2]; 2-day and 7-day treatments),WBC and splenocyte counts ([2]; both 2-day and 7-day treatments)
CCCCCCCCCCCCCCCCNC(CO)(CO)CO [AD2900],transient and reversed shortly after a 60-min treatment,51% ± 9%,returned to that of untreated control,25 to 2000,33% ± 9%,25% ± 8.2%,23% ± 7%,20% ± 7%,18% ± 4%,–,–
"CCCCCCCCc1ccc(CCC(N)(CO)CO)cc1 [FTY720, Fingolimod, reference compound]","smaller reduction of S1P1 cell surface expression, but its effect was not reversed after a 60-min treatment",–,–,–,–,–,–,–,–,only minor effects,dramatically reduced
